# Measured values published in patent US20080153873A1, “DIHYDROBENZOFURANYL DERIVATIVES AND METHODS OF THEIR USE” (Wyeth, priority 2006, published 2008).
# Where a name gives a salt, the structure may show the parent alone.
# Target: T1, human hNET (Homo sapiens, UniProt P23975)
# T1 construct: expressed in transfected cells; host or cells: MDCK-Net6 cells (MDCK, stably transfected)
# Test: Functional Norepinephrine (NE) Uptake Assay in MDCK-Net6 cells
# Type: cell-based
# Details: % inhibition of NE uptake @ 6 μM; MDCK-Net6 cells; read-out: hNET IC50 (nM) (% Inhibition)
# Experimental: MDCK-Net6 cells, stably transfected with human hNET (Pacholczyk, T., R. D. Blakely, and S. G. Amara, Nature, 1991, 350(6316): p. 350-4) were cultured in growth medium containing high glucose DMEM (Gibco, Cat. No. 11995), 10% FBS (dialyzed, heat-inactivated, US Bio-Technologies, Lot FBD1129HI) and 500 μg/ml G418 (Gibco, Cat. No. 10131). Cells were plated at 300,000 T75 flask and cells were split twice weekly.
# On day 1, cells were plated at 3,000 cells/well in growth medium and maintained in a cell incubator (37° C., 5% CO2). On day 2, growth medium was replaced with 200 μl of assay buffer (25 mM HEPES; 120 mM NaCl; 5 mM KCl; 2.5 mM CaCl2; 1.2 mM MgSO4; 2 mg/ml glucose (pH 7.4, 37° C.)) containing 0.2 mg/ml ascorbic acid and 1 μM pargyline. For screening, 25 μl of compound in 4% DMSO was added directly to each well and the plate is incubated for 5 minutes at 37° C.
# To initiate the norepinephrine reuptake, 16 nM (final concentration) of ^3H norepinephrine (specific activity; 40-80 Ci/mmol) in assay buffer was delivered in 25 μl aliquots to each well, and the plates were incubated for 5 minutes at 37° C. The reaction was aspirated from the plate and the cells washed with 250 μl of 50 mM Tris Buffer (4° C.). The plates were left to dry for 1 hour. The cells were lysed using 0.25 M NaOH solution then placed on a shake table and vigorously shaken for 10 minutes. After cell lysis, 100 μl of Microscint 20 (PerkinElmer; #87-051101) were added to the plates and the plates were sealed with film tape and replaced on the shake table for a minimum of 10 minutes. The plates were counted in a TopCount counter (PerkinElmer).
# For screening single point determinations, each compound plate contains at least 3 control wells (maximum NE reuptake determinant) and 3 non-specific wells determined by adding 20 μM of desipramine (minimum NE reuptake determinant). Determination of active compounds are calculated using a Microsoft Excel spread sheet applying the following formula:
# % inhibition=[1−((mean cpm test compound wells−mean cpm non-specific wells)/(mean cpm control wells−mean cpm non-specific wells))]×100
# For IC50 determination, raw cpm values were generated in a data file from the TopCount counter. The data was organized using Microsoft Excel and transferred into PRIZM graphing and statistical program, which calculates the estimated IC50 value. Calculation of IC50 values were made using non-linear regression analysis with a sigmoidal dose response with variable slope. The statistical program used wells containing ^3H norepinephrine only as the maximal NE reuptake determinant and wells containing ^3H norepinephrine plus 20 μM desipramine as the minimal NE reuptake determinant (non-specific determinant). Estimation of the IC50 value was completed on a log scale and the line was fit between the maximal and minimal NE reuptake values.
# T1 sequence (P23975 whole entry): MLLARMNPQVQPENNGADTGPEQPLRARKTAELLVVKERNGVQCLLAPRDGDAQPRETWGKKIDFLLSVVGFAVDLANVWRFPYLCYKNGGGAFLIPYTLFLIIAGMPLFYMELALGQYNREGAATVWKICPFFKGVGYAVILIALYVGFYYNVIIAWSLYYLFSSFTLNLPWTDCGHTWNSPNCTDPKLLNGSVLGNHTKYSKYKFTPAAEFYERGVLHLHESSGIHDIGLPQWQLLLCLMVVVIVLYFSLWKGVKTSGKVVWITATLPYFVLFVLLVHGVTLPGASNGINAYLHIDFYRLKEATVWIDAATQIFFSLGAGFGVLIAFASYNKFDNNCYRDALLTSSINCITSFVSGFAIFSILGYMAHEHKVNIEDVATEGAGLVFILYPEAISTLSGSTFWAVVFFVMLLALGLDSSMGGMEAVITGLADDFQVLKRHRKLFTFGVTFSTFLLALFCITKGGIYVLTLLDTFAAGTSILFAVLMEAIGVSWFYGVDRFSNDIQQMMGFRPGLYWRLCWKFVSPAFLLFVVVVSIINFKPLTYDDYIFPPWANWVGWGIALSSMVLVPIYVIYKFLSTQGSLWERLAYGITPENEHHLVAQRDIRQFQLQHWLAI
row,Compound,inhibition at 6 µM [%]
1,"CNCC1Oc2ccccc2C1n1ccc2ccccc21 (racemic) [Example 11, (+/−)-1-[3-(1H-indol-1-yl)-2,3-dihydro-1-benzofuran-2-yl]-N-methyl methanamine hydrochloride]",42
2,"CNC[C@@H]1Oc2ccccc2[C@H]1N1CC(C)(C)c2cccc(F)c21 [Example 5, 1-[(2S,3R)-3-(7-fluoro-3,3-dimethyl-2,3-dihydro-1H-indol-1-yl)-2,3-dihydro-1-benzofuran-2-yl]-N-methylmethanamine hydrochloride]",63
3,"CC(C)NC[C@@H]1Oc2ccccc2[C@H]1N1CC(C)(C)c2cccc(F)c21 [Example 6, N-{[(2S,3R)-3-(7-fluoro-3,3-dimethyl-2,3-dihydro-1H-indol-1-yl)-2,3-dihydro-1-benzofuran-2-yl]methyl}propan-2-amine hydrochloride]",30
4,"CN(C)C[C@@H]1Oc2ccccc2[C@H]1N1CC(C)(C)c2cccc(F)c21 [Example 7, 1-[(2S,3R)-3-(7-fluoro-3,3-dimethyl-2,3-dihydro-1H-indol-1-yl)-2,3-dihydro-1-benzofuran-2-yl]-N,N-dimethylmethanamine hydrochloride]",37
5,"CCNC[C@@H]1Oc2ccccc2[C@H]1N1CC(C)(C)c2cccc(F)c21 [Example 8, N-{[(2S,3R)-3-(7-fluoro-3,3-dimethyl-2,3-dihydro-1H-indol-1-yl)-2,3-dihydro-1-benzofuran-2-yl]methyl}ethanamine hydrochloride]",42
6,"CNCC1Oc2cc(F)ccc2C1N1C(=O)C(C)(C)c2ccccc21 (stereo not drawn) [Example 14, 1-{6-fluoro-2-[(methylamino)methyl]-2,3-dihydro-1-benzofuran-3-yl}-3,3-dimethyl-1,3-dihydro-2H-indol-2-one hydrochloride]",54

# Same assay, conditions: MDCK-Net6 cells stably transfected with hNET; 3H norepinephrine uptake, 16 nM
row,Compound,IC50 [nM]
1,"CNCC1Oc2ccccc2C1N1CCc2ccccc21 (racemic) [Example 10, (+/−)-1-[3-(2,3-dihydro-1H-indol-1-yl)-2,3-dihydro-1-benzofuran-2-yl]-N-methylmethanamine hydrochloride]",244
2,"CNCC1Oc2ccccc2C1n1ccc2ccccc21 (racemic) [Example 11, (+/−)-1-[3-(1H-indol-1-yl)-2,3-dihydro-1-benzofuran-2-yl]-N-methyl methanamine hydrochloride]",301
3,"CNCC1Oc2cc(F)ccc2C1n1c(=O)n(C(C)C)c2cccc(F)c21 (racemic) [Example 18, 4-Fluoro-3-{(2SR,3RS)-6-fluoro-2-[(methylamino)methyl]-2,3-dihydro-1-benzofuran-3-yl}-1-isopropyl-1,3-dihydro-2H-benzimidazol-2-one hydrochloride]",3800
4,"CNC[C@@H]1Oc2cc(F)ccc2[C@H]1n1c(=O)n(C(C)C)c2cccc(F)c21 (single isomer, unassigned) [Example 19, hydrochloride]",12400
5,"CNC[C@H]1Oc2cc(F)ccc2[C@@H]1n1c(=O)n(C(C)C)c2cccc(F)c21 (single isomer, unassigned) [Example 20, hydrochloride]",1750
6,"CNC[C@H]1Oc2ccccc2[C@@H]1N1CC(C)(C)c2cccc(F)c21 [Example 1, 1-[(2R,3S)-3-(7-fluoro-3,3-dimethyl-2,3-dihydro-1H-indol-1-yl)-2,3-dihydro-1-benzofuran-2-yl]-N-methylmethanamine hydrochloride]",27.2
7,"CNC[C@H]1Oc2ccccc2[C@@H]1N1CC(C)(C)c2cc(F)ccc21 [Example 2, 1-[(2R,3S)-3-(5-fluoro-3,3-dimethyl-2,3-dihydro-1H-indol-1-yl)-2,3-dihydro-1-benzofuran-2-yl]-N-methylmethanamine hydrochloride]",343
8,"CN(C)C[C@H]1Oc2ccccc2[C@@H]1N1CC(C)(C)c2cccc(F)c21 [Example 3, 1-[(2R,3S)-3-(7-fluoro-3,3-dimethyl-2,3-dihydro-1H-indol-1-yl)-2,3-dihydro-1-benzofuran-2-yl]-N,N-dimethylmethanamine hydrochloride]",319
9,"CC1(C)CN([C@H]2c3ccccc3O[C@@H]2CN)c2c(F)cccc21 [Example 4, 1-[(2R,3S)-3-(7-fluoro-3,3-dimethyl-2,3-dihydro-1H-indol-1-yl)-2,3-dihydro-1-benzofuran-2-yl]methanamine hydrochloride]",95
10,"CCOc1ccccc1O[C@H]1c2ccccc2O[C@@H]1CNC [Example 9, 1-[(2R,3S)-3-(2-ethoxyphenoxy)-2,3-dihydro-1-benzofuran-2-yl]-N-methylmethanamine hydrochloride]",846
11,"CNC[C@@H]1Oc2c(F)cccc2[C@H]1N1C(=O)C(C)(C)c2cccc(F)c21 [Example 12, 7-fluoro-1-{(2S,3R)-7-fluoro-2-[(methylamino)methyl]-2,3-dihydro-1-benzofuran-3-yl}-3,3-dimethyl-1,3-dihydro-2H-indol-2-one hydrochloride]",1030
12,"CNC[C@H]1Oc2ccc(F)cc2[C@@H]1N1CC(C)(C)c2cccc(F)c21 [Example 13, 1-[(2R,3S)-5-fluoro-3-(7-fluoro-3,3-dimethyl-2,3-dihydro-1H-indol-1-yl)-2,3-dihydro-1-benzofuran-2-yl]-N-methylmethanamine hydrochloride]",88.5
13,"CNCC1Oc2ccccc2C1N1C(=O)C(C)(C)c2ccccc21 (stereo not drawn) [Example 15, 3,3-dimethyl-1-{2-[(methylamino)methyl]-2,3-dihydro-1-benzofuran-3-yl}-1,3-dihydro-2H-indol-2-one hydrochloride]",1140
14,"CNCC1Oc2ccccc2C1N1CCCc2ccccc21 (stereo not drawn) [Example 16, 1-[3-(3,4-dihydroquinolin-1(2H)-yl)-2,3-dihydro-1-benzofuran-2-yl]-N-methylmethanamine hydrochloride]",811
15,"CNCC1Oc2ccccc2C1N(C)c1ccccc1 (stereo not drawn) [Example 17, N-methyl-2-[(methylamino)methyl]-N-phenyl-2,3-dihydro-1-benzofuran-3-amine hydrochloride]",3550
